In PubChem BioAssay (NCI):
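Exposure lasted 48 hours, with cells grown in 96-well plates and compounds tested at five concentrations. GI50 is the concentration that inhibits growth by half. TGI: concentration producing complete growth inhibition.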

Legend:
Assay in all cases: NCI-60 cell line screen, 48 h
HS 578T breast = system: HS 578T breast
MCF7 breast = system: MCF7 breast
T-47D breast = system: T-47D breast
BT-549 breast = system: BT-549 breast
MDA-MB-435 = system: MDA-MB-435

Structure (SMILES) | TGI (HS 578T breast) | TGI (MCF7 breast) | TGI (T-47D breast) | TGI (BT-549 breast) | TGI (MDA-MB-435) | GI50 (HS 578T breast) | GI50 (MCF7 breast) | GI50 (T-47D breast) | GI50 (MDA-MB-435) | GI50 (BT-549 breast)
CCC1CCC2C3CC=C4CC(OC(C)=O)C(N)CC4(C)C3CCC12C (stereo unspecified) | 5.1 µM | 14 µM | 12.6 µM | 10.6 µM | 5.66 µM | – | – | – | – | –
CC/C=C\C[C@H](O)C/C=C1/C(=O)C=C[C@@H]1C/C=C\CCCC(=O)OCCS(=O)(=O)c1ccccc1 | > 100 µM | 18.6 µM | 18.7 µM | – | 8.26 µM | 23.9 µM | 2.39 µM | 3.76 µM | 2.51 µM | –
Nc1ncnc2c1ncn2C1OC(CO)CC1O (stereo unspecified) | 82.2 µM | – | – | 92 µM | – | – | – | – | – | –
CN(C)c1ccc(/C=N/NC(=O)CSc2nc3sc4c(c3c(=O)n2-c2ccccc2)CCCCC4)cc1 | 40.5 µM | > 100 µM | > 100 µM | > 100 µM | > 100 µM | 3.85 µM | 4.7 µM | > 100 µM | 5.07 µM | 16.1 µM
COc1ccc(-c2cc(=O)c3c(OC)c(O)c(OC)cc3o2)cc1 | > 100 µM | > 100 µM | > 100 µM | > 100 µM | > 100 µM | – | – | – | – | –
CC(C)(C)n1nc(C2CC2)cc1NC(=O)Nc1ccc(Cl)cc1 | > 100 µM | > 100 µM | > 100 µM | > 100 µM | > 100 µM | – | – | – | – | –
NNC(=O)C(O)C(O)C(O)CO (stereo unspecified) | > 100 µM | > 100 µM | > 100 µM | > 100 µM | > 100 µM | – | – | – | – | –
COc1cc(/C=C/C(=O)c2ccc(F)cc2)ccc1OCCCCOc1cc2c(cc1OC)C(=O)N1CCCC1C=N2 (stereo unspecified) | 9.36 µM | 6.12 µM | > 33.2 µM | – | 8.01 µM | 0.336 µM | 0.318 µM | 1.42 µM | 2.71 µM | 0.855 µM
CN(C)C(=O)C(NCCO)c1ccccc1 (stereo unspecified) | > 100 µM | > 100 µM | > 100 µM | > 100 µM | > 100 µM | – | – | – | – | –
CCCCCCCCCCCCCCCCCc1cc(Cl)nc(Cl)n1 | > 100 µM | > 100 µM | – | > 100 µM | > 100 µM | – | – | – | – | –
O=C1C2=C(C(=O)c3c(O)ccc(O)c31)N(c1cccnc1)Cc1ccccc1O2 | – | 0.912 µM | 0.635 µM | 1.24 µM | 1.15 µM | – | 0.191 µM | 0.221 µM | 0.398 µM | 0.392 µM
C=C(C)[C@@H]1CC[C@]2(C(=O)N3CCN(C)CC3)CC[C@]3(C)[C@H](CC[C@@H]4[C@@]5(C)C/C(=C/c6ccncc6)[C@H](O)C(C)(C)[C@@H]5CC[C@]43C)[C@@H]12 | > 100 µM | 13.8 µM | 22.4 µM | 24.7 µM | 33.9 µM | 11.6 µM | 3.29 µM | 3.02 µM | 8.29 µM | 4.33 µM
O=C1c2cccc3c([N+](=O)[O-])ccc(c23)C(=O)N1CCCCl | > 10 µM | > 10 µM | > 10 µM | > 10 µM | > 10 µM | 4.6 µM | 3.03 µM | 2.65 µM | > 10 µM | 4.82 µM
COc1ccc(-c2cnc(SCC(=O)c3c(C)n(C)n(-c4ccccc4)c3=O)n2-c2ccc(OC)cc2)cc1 | > 50 µM | > 50 µM | > 50 µM | – | > 50 µM | 42.6 µM | 35.3 µM | > 50 µM | > 50 µM | –
O=C(/C=C/c1ccccc1)Nc1ncc(Cc2ccccc2)s1 | 20.8 µM | > 100 µM | > 100 µM | > 100 µM | 0.1 µM | 0.287 µM | 0.139 µM | 0.413 µM | 0.0286 µM | 1.17 µM
O=C(CC(O)c1cccnc1)CC(O)c1cccnc1 (stereo unspecified) | > 100 µM | 20 µM | > 73.5 µM | 25.6 µM | 55.3 µM | – | – | – | – | –
C[C@]12CC/C(=N\O)C[C@@H]1CC[C@@H]1[C@@H]2CC[C@]2(C)/C(=N/O)CC[C@@H]12 | – | 98.8 µM | > 100 µM | – | 70.8 µM | – | 26.1 µM | > 100 µM | 24.8 µM | –
COc1ccc(Nc2[nH]n(C3=Nc4ccccc4Sc4ccccc43)c(=O)c2C#N)cc1 | > 100 µM | 11.7 µM | 9.22 µM | 3.4 µM | 3.99 µM | 1.98 µM | 2.18 µM | 0.696 µM | 1.13 µM | 0.494 µM

Structure (SMILES) | TGI (HS 578T breast) | TGI (MCF7 breast) | TGI (T-47D breast) | TGI (BT-549 breast) | TGI (MDA-MB-435) | GI50 (HS 578T breast) | GI50 (MCF7 breast) | GI50 (T-47D breast) | GI50 (MDA-MB-435) | GI50 (BT-549 breast)
S=P(C1CCCCC1)(C1CCCCC1)C(c1cccnc1)N1CCCC1 (stereo unspecified) | 84.3 µM | > 100 µM | > 100 µM | 35.6 µM | 33.6 µM | – | – | – | – | –
O=c1[nH]ccc2nc(N3CCC(O)CC3)nc(Nc3ccc(N4CCOCC4)cc3)c12 | 9.03 µM | > 100 µM | > 100 µM | > 46.5 µM | > 100 µM | 2.01 µM | 4.45 µM | > 100 µM | 0.744 µM | 2.31 µM
CC[C@]12C=CCN3CC[C@@]4(c5ccc(OC)cc5N(C)[C@H]4[C@@](O)(C(=O)OC)[C@@H]1OC(=O)CCCC[P+](c1ccccc1)(c1ccccc1)c1ccccc1)[C@@H]32 | 9.11 µM | 5.3 µM | 12.7 µM | 1.94 µM | 1.31 µM | 1.34 µM | 0.32 µM | 0.396 µM | 0.359 µM | 0.465 µM
O=S1(=O)OCc2ccccc21 | > 100 µM | > 100 µM | > 100 µM | > 100 µM | > 100 µM | – | – | – | – | –
OCCNC(=S)Nc1ccc(-c2nc(N3C[C@H]4CC[C@@H](C3)O4)c3cccn3n2)cc1 | 0.248 µM | 11.4 µM | 0.0389 µM | 0.507 µM | 2.86 µM | 0.0221 µM | 0.0231 µM | < 0.01 µM | 0.0597 µM | 0.021 µM
Nc1c(C(=O)c2cccc(C(O)(CO)CO)c2)cnn1-c1ccc(F)cc1 | > 25 µM | > 25 µM | > 25 µM | > 25 µM | > 25 µM | > 25 µM | > 25 µM | > 25 µM | > 25 µM | > 25 µM
Cc1ccc(C(=O)Nc2ccc(CN3CCN(C)CC3)c(C(F)(F)F)c2)cc1C#Cc1cnc(N)c2ccc(C#N)cc12 | > 23.9 µM | 29.6 µM | > 50 µM | > 50 µM | 1.65 µM | 0.161 µM | 4.21 µM | 3.57 µM | 0.0259 µM | 10.1 µM
Cc1cc(C)nc(NS(=O)(=O)c2ccc(Nc3nc4nc(NCc5ccccc5)nc(-c5ccc(O)cc5)c4c(=O)[nH]3)cc2)n1 | 88.6 µM | 56.8 µM | > 100 µM | 52.9 µM | > 100 µM | 14.6 µM | 9.58 µM | 18.4 µM | 21.3 µM | 10.8 µM
COc1ccc2c3c(ccc2c1)NC(C(=O)O)CC3 (stereo unspecified) | > 100 µM | > 100 µM | 79.1 µM | > 100 µM | > 100 µM | – | – | – | – | –
Cc1ccccc1NC(=O)N/C(N)=N/c1nc(C)c(C)s1 | > 100 µM | > 100 µM | > 100 µM | > 100 µM | 0.468 µM | 0.488 µM | 0.142 µM | 0.448 µM | 0.0332 µM | 1.14 µM
COc1ccc(C2CC(c3ccc4ccccc4c3)=NN2/C=C2\SC(=S)N(NC(=O)Cc3ccccc3Nc3c(Cl)cccc3Cl)C2=O)cc1 (stereo unspecified) | > 37.6 µM | > 50.5 µM | 98.8 µM | > 43 µM | 0.547 µM | 0.415 µM | 0.361 µM | 0.788 µM | 0.221 µM | 0.681 µM
CCCCCCCC(=O)SCC/C=C/[C@@H]1CC(=O)NCc2cccc(n2)C2=N[C@@](C)(CS2)C(=O)N[C@@H](C(C)C)C(=O)O1 | > 10.1 µM | > 33.3 µM | 1.6 µM | > 33.3 µM | > 12.5 µM | 0.0209 µM | 0.0827 µM | 0.147 µM | 0.0292 µM | 0.19 µM
COc1ccc2nc(-c3ccc(Cl)cc3)cc(-c3nnc(SCC(=O)Nc4ccc(/C(C)=N\O)cc4)o3)c2c1 | 17.9 µM | – | 3.97 µM | 18.9 µM | 4.08 µM | 2.77 µM | – | 0.981 µM | 1.26 µM | 3.7 µM
C=C(c1ccc(OC)c(/C=C/C(=O)c2cc(OC)c(OC)c(OC)c2)c1)c1cc(OC)c(OC)c(OC)c1 | 50 µM | 4.03 µM | 6.12 µM | 4.22 µM | – | 1.46 µM | 0.44 µM | 1.38 µM | – | 0.894 µM
CC1=CC[C@@H]2[C@@H](CC[C@@]2(C)O)C(C)(C)[C@H]1CC[C@@H]1[C@@]2(C)CC[C@@H](O)C(C)(C)O[C@@H]2CC[C@]1(C)O | – | > 100 µM | > 100 µM | 44 µM | 57 µM | – | – | – | – | –
Nc1nc2ccccc2c2[nH]c3ccccc3c12 | – | 2.55 µM | 2.91 µM | 2.58 µM | 3.16 µM | – | 1.19 µM | 1.21 µM | 0.938 µM | 1.26 µM
COC1=CC(=O)c2c(O)c3c(c(O)c2C1=O)OC1(Oc2c(cc4cc(C)oc(=O)c4c2O)CC1O)C3O (stereo unspecified) | > 100 µM | > 100 µM | > 100 µM | – | > 100 µM | – | – | – | – | –
Nc1nc(=O)c2[nH]cnc2n1O | > 100 µM | > 100 µM | > 100 µM | > 100 µM | – | – | – | – | – | –
